Source: publication PMC9178793, “A Direct Assay for Measuring the Activity and Inhibition of Coactivator-Associated Arginine Methyltransferase 1” (Biochemistry, 2022)
Like-named read-outs stand apart in the source and are kept apart here. *1 amine or outer side, *2 acyl side, *3 side chain or, on linkers, in order; H or OH if unused. Where a SMILES comes first, the peptide text is derived from it. [ ]: non-standard residue; d: D form. X1 = N=C(NCCC[C@H](N[*:1])C(=O)[*:2])NCCC[C@H]1O[C@@H](n2cnc3c(N)ncnc32)[C@H](O)[C@@H]1O

Tests used:
[1] = target: T1, CARM1 (Mus musculus, UniProt Q9WVG6); assay: MRM LC-MS CARM1 enzyme inhibition assay (PABP1 456–466 peptide substrate, direct detection of aDMA product); format: biochemical; conditions: 286 nM CARM1, 12 μM PABP1 456–466, 10 μM AdoMet, 15 min preincubation, 2 h room temperature; duplicate data, ± SD
T1 construct: corresponding to the PRMT core (residues 130–497, mmCARM1_130–497) were amplified by PCR; GST (followed by TEV protease cleavage site) (N, cleaved yes); made in house; host or cells: Sf9 insect cells (baculovirus)
T1 sequence (Q9WVG6 130-497): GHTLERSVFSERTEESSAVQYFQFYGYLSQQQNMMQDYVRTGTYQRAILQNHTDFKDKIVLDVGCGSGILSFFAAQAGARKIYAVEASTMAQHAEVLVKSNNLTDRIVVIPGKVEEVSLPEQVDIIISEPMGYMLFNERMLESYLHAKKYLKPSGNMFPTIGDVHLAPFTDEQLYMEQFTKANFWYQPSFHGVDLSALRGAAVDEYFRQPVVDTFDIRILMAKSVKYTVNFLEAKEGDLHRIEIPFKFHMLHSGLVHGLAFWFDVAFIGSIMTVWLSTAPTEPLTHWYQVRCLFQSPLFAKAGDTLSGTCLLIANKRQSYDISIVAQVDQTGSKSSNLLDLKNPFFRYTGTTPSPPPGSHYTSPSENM
Text: The positive clones were confirmed by sequencing (GATC). The sequences were subcloned in a pDEST20 vector using an LR reaction. The resulting recombinant protein is harboring an amino-terminal glutathione S-transferase (GST) tag followed by a Tobacco etch virus (TEV) protease cleavage site. […] Bacmid DNA purified from recombination-positive white colonies was transfected into Sf9 cells using the Lipofectin reagent (Invitrogen). Viruses were harvested 10 days after transfection. Sf9 cells were grown at 300 K in suspension culture in Grace medium (Gibco) using Bellco spinner flasks. sf9 cell culture (1 L, 0.8 × 10^6 cells·mL^-1) was infected with recombinant […]1 virus with an infection multiplicity of 1. The cells were harvested 48 h post-infection. Cell lysis was performed by sonication in 50 mL of buffer A [50 mM Tris-HCl pH 8.0, 250 mM NaCl, 5% glycerol, 5 mM TCEP, 0.01% NP40 and anti-proteases (Roche, Complete, EDTA-free)], and cellular debris was sedimented by centrifugation of the lysate at 40 000g for 30 min. The supernatant was incubated overnight at 277 K with 2 mL of glutathione Sepharose resin (GE Healthcare). After a short centrifugation, the supernatants were discarded, and the beads were poured in an Econo-column (Bio-Rad). After two washing steps with 10 mL of buffer A, 2 mL of buffer A supplemented with in-house produced TEV protease was applied to the columns and digestion was performed for 4 h at 303 K with gentle mixing. The digest was concentrated with an Amicon Ultra 10K (Milipore), loaded on a gel-filtration column (HiLoad 16/60 Superdex S200, GE Healthcare), and eluted at 1 mL·min^-1 with buffer B [20 mM Tris-HCl pH 8.0, 100 mM NaCl, 1 mM TCEP] using an ÄKTA Purifier device (GE Healthcare). Fractions containing […]1_130-497 were pooled and concentrated to 7.75 mg·mL^-1. […] The reaction was subsequently quenched by the addition of 30 μL of the reaction mixture to 10 μL of a 0.1% formic acid solution (pH 2). […] The supernatant (60 μL) was transferred to a new 96-well plate and analyzed. […] The products were eluted with a water-acetonitrile gradient moving from 20 to 92% acetonitrile (0.1% FA) over 6 min at a flow rate of 0.5 mL·min^-1. The injection volume was 10 μL. The ionization source was operated in positive mode using an interface voltage of 4.5 kV, nebulizing gas at 1.5 L/min, drying gas at 15 L/min, and a desolvation line (DL) temperature of 250 °C. The MRM parameter optimization was performed using both the analyte (PABP1^456-466-R^460-aDMA) and hexadeuterated internal standard (PABP1^456-466-R^460-d6-aDMA). The results of this optimization, which include precursor ion scanning, collision energy, and Q1 and Q3 scanning, are summarized in Table 1. […] For commercially available inhibitors that were not soluble in water, stock solutions were prepared in DMSO and diluted to a final DMSO concentration of <1% in the assay mixture. […] The mixture was incubated for 2 h at room temperature, and the reaction was subsequently quenched by the addition of 30 μL of the reaction mixture to 10 μL of a 0.1% formic acid solution (pH 2). […] The supernatant (60 μL) was transferred to a new 96-well plate and analyzed by LC-MS as described above. Negative controls (no enzyme) and positive controls (no inhibitor) were included in each plate. For quantification of the methylated product, the area ratio of analyte to internal standard was calculated and quantified using the linearity line obtained with the reference standards. […] To obtain kcat with units of s^-1, the maximal velocity (Vmax) is divided by 3600. [drawing 3] 3 The percentage inhibition was plotted as a function of inhibitor concentration and fit using a nonlinear regression analysis of the sigmoidal dose-response curve generated using the normalized data and a variable slope following eq 4. [drawing 4] 4 where Y is the percent inhibition, X is the logarithmic concentration of the inhibitors, and Hill Slope is the slope factor or Hill coefficient. […]

[2] = target: T2, CARM1 (Homo sapiens, UniProt Q86X55); conditions: chemiluminescent ELISA kit, H3-derived peptide, 1 μM AdoMet; cited from earlier work
T2 sequence (Q86X55 1-608): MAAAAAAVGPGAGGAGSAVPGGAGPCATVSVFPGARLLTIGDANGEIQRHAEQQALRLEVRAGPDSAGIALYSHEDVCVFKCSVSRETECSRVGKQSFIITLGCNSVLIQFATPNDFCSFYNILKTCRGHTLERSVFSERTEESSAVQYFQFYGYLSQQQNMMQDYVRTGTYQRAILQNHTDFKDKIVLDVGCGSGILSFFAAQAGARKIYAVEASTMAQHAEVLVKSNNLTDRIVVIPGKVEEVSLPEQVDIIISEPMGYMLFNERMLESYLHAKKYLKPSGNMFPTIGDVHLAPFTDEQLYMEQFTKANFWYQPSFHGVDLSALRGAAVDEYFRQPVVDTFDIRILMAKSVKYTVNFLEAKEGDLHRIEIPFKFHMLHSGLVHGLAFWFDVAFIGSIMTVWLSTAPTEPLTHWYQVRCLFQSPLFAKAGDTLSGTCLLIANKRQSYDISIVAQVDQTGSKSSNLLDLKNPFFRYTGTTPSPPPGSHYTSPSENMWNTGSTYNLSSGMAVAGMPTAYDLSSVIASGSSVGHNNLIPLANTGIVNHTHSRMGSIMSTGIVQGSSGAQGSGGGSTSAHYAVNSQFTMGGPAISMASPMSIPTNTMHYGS

[3] = target: T2, CARM1; assay: commercially available chemiluminescent antibody-based ELISA kit (histone H3-derived peptide, aDMA at H3-R17); format: biochemical
Protocol: We next applied the assay in assessing the inhibition of CARM1 by a number of known inhibitors of varying potencies including AdoHcy (1), MS023 (2), MS049 (3), TP064 (4), and a series of recently reported peptidomimetic CARM1 inhibitors (5–9) (Figure 3).[20],[32]−[35] For the purpose of generating IC50 curves for these inhibitors, concentration ranges were set according to previously reported IC50 values. The inhibitors were first incubated with CARM1 for 15 min at room temperature before the enzyme reaction was initiated by the addition of the AdoMet/PABP1^456–466 substrate mixture. On the basis of the residual CARM1 activity measured, inhibition curves were generated and the IC50 values were determined (Table 3). To evaluate the suitability of the method for the determination of CARM1 inhibition, the IC50 values were compared with those obtained using a commercially available chemiluminescent ELISA kit. […] In addition, the peptide substrate and detection method employed in the ELISA kit are inherently different. The kit employs a histone H3-derived peptide that is covalently linked to the bottom of the well plate, and as such, no substrate concentration is given. Product formation in turn is detected using specific antibodies that recognize aDMA formation at arginine residue H3-R^17.

SMILES	IC50 [1]	IC50 [2]	IC50 [3]
Nc1ncnc2c1ncn2[C@@H]1O[C@H](CSCC[C@H](N)C(=O)O)[C@@H](O)[C@H]1O [Compound 1, S-adenosyl-L-homocysteine, reference compound]	873 ± 339 nM		
CC(=O)N[C@@H](C)C(=O)N1CCC[C@H]1C(=O)N[C@@H](CCCNC(=N)NCCC[C@H]1O[C@@H](n2cnc3c(N)ncnc32)[C@H](O)[C@@H]1O)C(=O)N[C@@H](CCCCN)C(=O)N[C@@H](CCC(N)=O)C(=O)N[C@@H](CC(C)C)C(N)=O [Compound 7] (Ac-AP[X1]KQL-NH2)	617 ± 57 nM		
CNCCN1CCC(c2cc(CN(C)C(=O)c3cccc(Oc4ccccc4)c3)ccn2)CC1 [Compound 4, reference compound]	162 ± 10 nM		
CC(=O)N1CCC[C@H]1C(=O)N[C@@H](CCCNC(=N)NCCC[C@H]1O[C@@H](n2cnc3c(N)ncnc32)[C@H](O)[C@@H]1O)C(=O)N[C@@H](CCCCN)C(=O)N[C@@H](CCC(N)=O)C(N)=O [Compound 8]	1460 ± 21 nM		
CSCC[C@H](NC(=O)[C@@H](NC(=O)[C@H](CO)NC(=O)[C@H](Cc1ccccc1)NC(=O)[C@@H]1CCCN1C(=O)[C@@H]1CCCN1C(=O)[C@H](CCCNC(=N)NCCC[C@H]1O[C@@H](n2cnc3c(N)ncnc32)[C@H](O)[C@@H]1O)NC(=O)[C@@H]1CCCN1C(=O)[C@H](C)NC(=O)[C@H](C)NC(=O)[C@@H]1CCCN1C(C)=O)[C@@H](C)O)C(N)=O [Compound 9] (Ac-PAAP[X1]PPFSTM-NH2)	212 ± 25 nM	90 ± 16 nM	
CC(C)Oc1ccc(-c2c[nH]cc2CN(C)CCN)cc1 [Compound 2, reference compound]	327 ± 34 nM		101 ± 11 nM
CC(=O)N[C@@H](CO)C(=O)N[C@H](C(=O)NCC(=O)NCC(=O)N[C@@H](CCCCN)C(=O)N[C@@H](C)C(=O)N1CCC[C@H]1C(=O)N[C@@H](CCCNC(=N)NCCC[C@H]1O[C@@H](n2cnc3c(N)ncnc32)[C@H](O)[C@@H]1O)C(=O)N[C@@H](CCCCN)C(=O)N[C@@H](CCC(N)=O)C(=O)N[C@@H](CC(C)C)C(=O)N[C@@H](C)C(=O)N[C@H](C(=O)N[C@@H](CCCCN)C(=O)N[C@@H](C)C(=O)N[C@@H](C)C(N)=O)[C@@H](C)O)[C@@H](C)O [Compound 5] (Ac-STGGKAP[X1]KQLATKAA-NH2)	770 ± 98 nM		
CC(=O)N[C@@H](CCCCN)C(=O)N[C@@H](C)C(=O)N1CCC[C@H]1C(=O)N[C@@H](CCCNC(=N)NCCC[C@H]1O[C@@H](n2cnc3c(N)ncnc32)[C@H](O)[C@@H]1O)C(=O)N[C@@H](CCCCN)C(=O)N[C@@H](CCC(N)=O)C(=O)N[C@@H](CC(C)C)C(=O)N[C@@H](C)C(N)=O [Compound 6] (Ac-KAP[X1]KQLA-NH2)	403 ± 28 nM		
